# Assay results published in US20230398130A1, “METHODS AND COMPOSITIONS FOR DIFFERENTIATING STEM CELLS” (Massachusetts Institute of Technology, priority 2020, published 2023).
# Experiments:
# ISC-enriched organoids [1] = assay: Primary screen, 384-well 2.5-D organoid differentiation (ENR+CD, 6 days): basal lysozyme secretion (LYZ.NS); assay type: cell-based, murine; conditions: for Dose.FC.LYZ.NS: FC vs plate median; for Z.LYZ.NS: standard z score of FC; for Dose.FC.LYZ.NS (log 2 fold change): vs plate median
# Excerpt: (§1) High-throughput screening.
# ISC-enriched organoids [2] = assay: Primary screen, 384-well 2.5-D organoid differentiation (ENR+CD, 6 days): carbachol-induced lysozyme secretion (LYZ.S); assay type: cell-based, murine; conditions: for Dose.FC.LYZ.S: FC vs plate median; for Dose.FC.LYZ.S (log 2 fold change): vs plate median
# Excerpt: as §1
# ISC-enriched organoids [3] = assay: Primary screen, 384-well 2.5-D organoid differentiation (ENR+CD, 6 days, Target Selective Inhibitor Library, vs whole-plate median): ATP (CellTiter-Glo 3D, CTG); conditions: for Dose.FC.CTG: FC vs plate median; for Z.CTG: standard z score of FC; for Dose.FC.CTG (log 2 fold change): vs plate median
smiles,measurement,setting,value
CS(=O)(=O)c1cccc(CNc2nc(Nc3ccc4c(c3)CCC(=O)N4)ncc2C(F)(F)F)c1 [PF-573228],Dose.FC.LYZ.NS,"ISC-enriched organoids [1]; Dose 0.08 uM, primary screen",0.010 log 2 fold change
same,Z.LYZ.NS,ISC-enriched organoids [1]; Dose 0.08 uM,0.089
same,Dose.FC.LYZ.NS,"ISC-enriched organoids [1]; Dose 0.40 uM, primary screen",−0.046 log 2 fold change
same,Z.LYZ.NS,ISC-enriched organoids [1]; Dose 0.40 uM,−0.401
same,Dose.FC.LYZ.NS,"ISC-enriched organoids [1]; Dose 2.00 uM, primary screen",−0.058 log 2 fold change
same,Z.LYZ.NS,ISC-enriched organoids [1]; Dose 2.00 uM,−0.502
same,Dose.FC.LYZ.NS,"ISC-enriched organoids [1]; Dose 10.00 uM, primary screen",−0.250 log 2 fold change
same,Z.LYZ.NS,ISC-enriched organoids [1]; Dose 10.00 uM,−2.180
same,Dose.FC.LYZ.S,"ISC-enriched organoids [2]; Dose 0.08 uM, primary screen",0.114 log 2 fold change
same,Dose.FC.LYZ.S,"ISC-enriched organoids [2]; Dose 0.40 uM, primary screen",0.002 log 2 fold change
same,Dose.FC.LYZ.S,"ISC-enriched organoids [2]; Dose 2.00 uM, primary screen",−0.174 log 2 fold change
same,Dose.FC.LYZ.S,"ISC-enriched organoids [2]; Dose 10.00 uM, primary screen",−0.305 log 2 fold change
same,Dose.FC.CTG,"ISC-enriched organoids [3]; Dose 0.08 uM, primary screen",0.077 log 2 fold change
same,Z.CTG,ISC-enriched organoids [3]; Dose 0.08 uM,0.183
same,Dose.FC.CTG,"ISC-enriched organoids [3]; Dose 0.40 uM, primary screen",−0.054 log 2 fold change
same,Z.CTG,ISC-enriched organoids [3]; Dose 0.40 uM,−0.129
same,Dose.FC.CTG,"ISC-enriched organoids [3]; Dose 2.00 uM, primary screen",−0.434 log 2 fold change
same,Z.CTG,ISC-enriched organoids [3]; Dose 2.00 uM,−1.037
same,Dose.FC.CTG,"ISC-enriched organoids [3]; Dose 10.00 uM, primary screen",−0.497 log 2 fold change
same,Z.CTG,ISC-enriched organoids [3]; Dose 10.00 uM,−1.188
O=C(NNc1nc2cc(F)ccc2n2cccc12)c1cnccn1 [SC144],Z.LYZ.NS (standard z score),"ISC-enriched organoids [1]; Dose 0.08 uM, primary screen",0.582
same,Dose.FC.LYZ.NS (log 2 fold change),"ISC-enriched organoids [1]; Dose 0.08 uM, primary screen",0.067
same,Z.LYZ.NS (standard z score),"ISC-enriched organoids [1]; Dose 0.40 uM, primary screen",−0.112
same,Dose.FC.LYZ.NS (log 2 fold change),"ISC-enriched organoids [1]; Dose 0.40 uM, primary screen",−0.013
same,Z.LYZ.NS (standard z score),"ISC-enriched organoids [1]; Dose 2.00 uM, primary screen",−0.220
same,Dose.FC.LYZ.NS (log 2 fold change),"ISC-enriched organoids [1]; Dose 2.00 uM, primary screen",−0.025
same,Z.LYZ.NS (standard z score),"ISC-enriched organoids [1]; Dose 10.00 uM, primary screen",−1.355
same,Dose.FC.LYZ.NS (log 2 fold change),"ISC-enriched organoids [1]; Dose 10.00 uM, primary screen",−0.156
same,Dose.FC.LYZ.S (log 2 fold change),"ISC-enriched organoids [2]; Dose 0.08 uM, primary screen",0.098
same,Dose.FC.LYZ.S (log 2 fold change),"ISC-enriched organoids [2]; Dose 0.40 uM, primary screen",0.014
same,Dose.FC.LYZ.S (log 2 fold change),"ISC-enriched organoids [2]; Dose 2.00 uM, primary screen",−0.131
same,Dose.FC.LYZ.S (log 2 fold change),"ISC-enriched organoids [2]; Dose 10.00 uM, primary screen",−0.211
same,Z.CTG (standard z score),"ISC-enriched organoids [3]; Dose 0.08 uM, primary screen",0.381
same,Dose.FC.CTG (log 2 fold change),"ISC-enriched organoids [3]; Dose 0.08 uM, primary screen",0.160
same,Z.CTG (standard z score),"ISC-enriched organoids [3]; Dose 0.40 uM, primary screen",0.309
same,Dose.FC.CTG (log 2 fold change),"ISC-enriched organoids [3]; Dose 0.40 uM, primary screen",0.129
same,Z.CTG (standard z score),"ISC-enriched organoids [3]; Dose 2.00 uM, primary screen",−0.613
same,Dose.FC.CTG (log 2 fold change),"ISC-enriched organoids [3]; Dose 2.00 uM, primary screen",−0.257
same,Z.CTG (standard z score),"ISC-enriched organoids [3]; Dose 10.00 uM, primary screen",−2.113
same,Dose.FC.CTG (log 2 fold change),"ISC-enriched organoids [3]; Dose 10.00 uM, primary screen",−0.885
C[C@]12C=CC(=O)N[C@@H]1CC[C@@H]1[C@@H]2CC[C@]2(C)[C@@H](C(=O)Nc3cc(C(F)(F)F)ccc3C(F)(F)F)CC[C@@H]12 [Dutasteride],Dose.FC.LYZ.NS,"ISC-enriched organoids [1]; Dose 0.08 uM, ENR+CD, 6 days",0.065 log 2 fold change
same,Z.LYZ.NS,ISC-enriched organoids [1]; Dose 0.08 uM,0.568
same,Dose.FC.LYZ.NS,"ISC-enriched organoids [1]; Dose 0.40 uM, ENR+CD, 6 days",0.006 log 2 fold change
same,Z.LYZ.NS,ISC-enriched organoids [1]; Dose 0.40 uM,0.052
same,Dose.FC.LYZ.NS,"ISC-enriched organoids [1]; Dose 2.00 uM, ENR+CD, 6 days",−0.105 log 2 fold change
same,Z.LYZ.NS,ISC-enriched organoids [1]; Dose 2.00 uM,−0.915
same,Dose.FC.LYZ.NS,"ISC-enriched organoids [1]; Dose 10.00 uM, ENR+CD, 6 days",−0.092 log 2 fold change
same,Z.LYZ.NS,ISC-enriched organoids [1]; Dose 10.00 uM,−0.799
same,Dose.FC.LYZ.S,"ISC-enriched organoids [2]; Dose 0.08 uM, ENR+CD, 6 days",0.001 log 2 fold change
same,Dose.FC.LYZ.S,"ISC-enriched organoids [2]; Dose 0.40 uM, ENR+CD, 6 days",−0.054 log 2 fold change
same,Dose.FC.LYZ.S,"ISC-enriched organoids [2]; Dose 2.00 uM, ENR+CD, 6 days",−0.074 log 2 fold change
same,Dose.FC.LYZ.S,"ISC-enriched organoids [2]; Dose 10.00 uM, ENR+CD, 6 days",−0.151 log 2 fold change
same,Dose.FC.CTG,"ISC-enriched organoids [3]; Dose 0.08 uM, ENR+CD, 6 days",0.057 log 2 fold change
same,Z.CTG,ISC-enriched organoids [3]; Dose 0.08 uM,0.137
same,Dose.FC.CTG,"ISC-enriched organoids [3]; Dose 0.40 uM, ENR+CD, 6 days",−0.266 log 2 fold change
same,Z.CTG,ISC-enriched organoids [3]; Dose 0.40 uM,−0.636
same,Dose.FC.CTG,"ISC-enriched organoids [3]; Dose 2.00 uM, ENR+CD, 6 days",−0.098 log 2 fold change
same,Z.CTG,ISC-enriched organoids [3]; Dose 2.00 uM,−0.234
same,Dose.FC.CTG,"ISC-enriched organoids [3]; Dose 10.00 uM, ENR+CD, 6 days",−0.057 log 2 fold change
same,Z.CTG,ISC-enriched organoids [3]; Dose 10.00 uM,−0.137
